Data taken from patent US20130189351A1, “LIPIDS SUITABLE FOR LIPOSOMAL DELIVERY OF PROTEIN CODING RNA” (priority 2010, published 2013).

Test: physchem
Description: The pKa of a lipid is the pH at which 50% of the lipids are charged, lying halfway between the point where the lipids are completely charged and the point where the lipids are completely uncharged.
The pKa of a lipid is measured in water at standard temperature and pressure using the following technique: • 2 mM solution of lipid in ethanol is prepared by weighing the lipid and dissolving in ethanol. 0.3 mM solution of fluorescent probe toluene nitrosulphonic acid (TNS) in ethanol:methanol 9:1 is prepared by first making 3 mM solution of TNS in methanol and then diluting to 0.3 mM with ethanol. • An aqueous buffer containing sodium phosphate, sodium citrate sodium acetate and sodium chloride, at the concentrations 20 mM, 25 mM, 20 mM and 150 mM, respectively, is prepared. The buffer is split into eight parts and the pH adjusted either with 12N HCl or 6N NaOH to 4.44-4.52, 5.27, 6.15-6.21, 6.57, 7.10-7.20, 7.72-7.80, 8.27-8.33 and 10.47-11.12. 400 uL of 2 mM lipid solution and 800 uL of 0.3 mM TNS solution are mixed. • 7.5 μL of probe/lipid mix are added to 242.5 μL of buffer in a 1 mL 96 well plate. This is done with all eight buffers. […]

Row | SMILES | pKa
1 | CCCCC/C=C\C/C=C\CCCCCCCCOCC(CN1CCC(C)(C)C1)OCCOCCO[C@H]1CC[C@@]2(C)C(=CC[C@H]3[C@@H]4CC[C@H]([C@H](C)CCCC(C)C)[C@@]4(C)CC[C@@H]32)C1 (some centres unmarked) [RV05] | 5.85
2 | CCCCC/C=C\C/C=C\CCCCCCCCOCC(CN1CCCC1C)OCCOCCOCCNC(=O)CCC(=O)O[C@H]1CC[C@@]2(C)C(=CC[C@H]3[C@@H]4CC[C@H]([C@H](C)CCCC(C)C)[C@@]4(C)CC[C@@H]32)C1 (some centres unmarked) [RV10] | 7.86
